Counter-ions that a name gives are not always drawn.
Target: T1, human β-Secretase (soluble part, AA1-AA460; sBACE-Fc) (Homo sapiens, UniProt P56817)
T1 construct: The soluble part of the human β-Secretase (AA1-AA460) was cloned into the ASP2-Fc10-1-IRES-GFP-neoK mammalian expression vector; made in house
Assay: TR-FRET assay
Type: biochemical
Details: substrate (Europium)CEVNLDAEFK(Qsy7) 100 nM, pH 4.5, 15 min at RT; read-out: IC50 (nM) in TR-FRET assay

T1 sequence (P56817 22-460): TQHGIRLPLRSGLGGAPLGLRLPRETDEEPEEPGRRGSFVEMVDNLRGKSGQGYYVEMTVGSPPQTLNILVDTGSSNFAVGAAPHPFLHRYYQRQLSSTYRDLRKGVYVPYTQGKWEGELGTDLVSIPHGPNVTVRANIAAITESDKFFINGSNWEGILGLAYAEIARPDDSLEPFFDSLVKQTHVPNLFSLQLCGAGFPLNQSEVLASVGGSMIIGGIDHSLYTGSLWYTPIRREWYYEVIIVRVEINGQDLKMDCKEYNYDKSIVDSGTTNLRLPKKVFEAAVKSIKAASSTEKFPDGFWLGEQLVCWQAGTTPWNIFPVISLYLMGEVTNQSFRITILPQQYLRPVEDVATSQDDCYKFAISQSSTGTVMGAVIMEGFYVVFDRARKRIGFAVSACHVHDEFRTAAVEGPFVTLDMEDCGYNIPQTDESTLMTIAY

First: CCN1C(=O)C(c2ccc(OS(C)(=O)=O)cc2)(c2ccc(F)c(-c3cccc(OC)c3)c2)N=C1N (stereo not drawn) [Example 163, 4-[2-Amino-4-(6-fluoro-3′-methoxybiphenyl-3-yl)-1-ethyl-5-oxo-4,5-dihydro-1H-imidazol-4-yl]phenyl methanesulfonate 0.25acetate]
Second: COc1cncc(-c2cc(C3(c4ccc(OS(=O)(=O)C(F)(F)F)cc4)N=C(N)N(C)C3=O)ccc2F)c1 (stereo not drawn) [Example 148, 4-{2-Amino-4-[4-fluoro-3-(5-methoxypyridin-3-yl)phenyl]-1-methyl-5-oxo-4,5-dihydro-1H-imidazol-4-yl}phenyl trifluoromethanesulfonate 0.5 acetate]
The IC50 of the first is 9.9-fold higher: 395 nM for the first, 40 nM for the second.

Going from `CN1C(=O)C(c2cccc(OS(=O)(=O)c3ccc(Cl)s3)c2)(c2ccc(F)c(-c3cncnc3)c2)N=C1N` (stereo not drawn) [Example 242, 3-[2-Amino-4-(4-fluoro-3-pyrimidin-5-ylphenyl)-1-methyl-5-oxo-4,5-dihydro-1H-imidazol-4-yl]phenyl-5-chlorothiophene-2-sulfonate] to `CN1C(=O)C(c2cccc(OS(C)(=O)=O)c2)(c2ccc(F)c(-c3cncnc3)c2)N=C1N` (stereo not drawn) [Example 94, 3-[2-Amino-4-(4-fluoro-3-pyrimidin-5-ylphenyl)-1-methyl-5-oxo-4,5-dihydro-1H-imidazol-4-yl]phenyl methanesulfonate], the IC50 rises from 31 nM to 472 nM (15-fold). The first is the more potent here.

Going from `CN1C(=O)C(c2ccc(OS(C)(=O)=O)cc2)(c2ccc(F)c(C3=CCCCC3)c2)N=C1N` (stereo not drawn) [Example 299, 4-[2-Amino-4-(3-cyclohex-1-en-1-yl-4-fluorophenyl)-1-methyl-5-oxo-4,5-dihydro-1H-imidazol-4-yl]phenyl methanesulfonate 0.5 acetate] to `CN1C(=O)C(c2ccc(OC(F)F)cc2)(c2ccc(F)c(-c3cc(C#N)cc(OS(C)(=O)=O)c3)c2)N=C1N` (stereo not drawn) [Example 70, 5′-{2-Amino-4-[4-(difluoromethoxy)phenyl]-1-methyl-5-oxo-4,5-dihydro-1H-imidazol-4-yl}-5-cyano-2′-fluorobiphenyl-3-yl methanesulfonate hydrochloride], the IC50 rises from 330 nM to 2420 nM (7.3-fold).

`CCCS(=O)(=O)Oc1cccc(C2(c3ccc(F)c(-c4cccnc4)c3)N=C(N)N(C)C2=O)c1` (stereo not drawn) [Example 97, 3-[2-Amino-4-(4-fluoro-3-pyridin-3-ylphenyl)-1-methyl-5-oxo-4,5-dihydro-1H-imidazol-4-yl]phenylpropane-1-sulfonate] and `CN1C(=O)C(c2cccc(OS(C)(=O)=O)c2)(c2ccc(F)c(-c3cc(Cl)cnc3F)c2)N=C1N` (stereo not drawn) [Example 86, 3-{2-Amino-4-[3-(5-chloro-2-fluoropyridin-3-yl)-4-fluorophenyl]-1-methyl-5-oxo-4,5-dihydro-1H-imidazol-4-yl}phenyl methanesulfonate] are within 1.5-fold of each other in IC50: 236 nM for the first, 292 nM for the second.

First: COc1cc(OS(C)(=O)=O)cc(-c2cccc(C3(c4ccc(OC(F)F)cc4)N=C(N)N(C)C3=O)c2)c1 (stereo not drawn) [Example 63, 3′-{2-Amino-4-[4-(difluoromethoxy)phenyl]-1-methyl-5-oxo-4,5-dihydro-1H-imidazol-4-yl}-5-methoxybiphenyl-3-yl methanesulfonate 0.25acetate]
Second: CN1C(=O)C(c2ccc(OS(=O)(=O)c3ccccc3)cc2)(c2ccc(F)c(Br)c2)N=C1N (stereo not drawn) [Example 184, 4-[2-Amino-4-(3-bromo-4-fluorophenyl)-1-methyl-5-oxo-4,5-dihydro-1H-imidazol-4-yl]phenyl benzenesulfonate]
The IC50 of the first is 8.7-fold lower: 18 nM for the first, 156 nM for the second.

Compared with `CN1C(=O)C(c2ccc(OS(=O)(=O)C(F)(F)F)cc2)(c2ccc(F)c(-c3cncc(F)c3)c2)N=C1N` (stereo not drawn) [Example 145, 4-{2-amino-4-[4-fluoro-3-(5-fluoropyridin-3-yl)phenyl]-1-methyl-5-oxo-4,5-dihydro-1H-imidazol-4-yl}phenyl trifluoromethanesulfonate 0.5 acetate], `CN1C(=O)C(c2cccc(OS(=O)(=O)c3ccc(Cl)s3)c2)(c2ccc(F)c(Br)c2)N=C1N` (stereo not drawn) [Example 231, 3-[2-Amino-4-(3-bromo-4-fluorophenyl)-1-methyl-5-oxo-4,5-dihydro-1H-imidazol-4-yl]phenyl 5-chlorothiophene-2-sulfonate] is 5.7-fold higher in IC50: 150 nM for the first, 859 nM for the second. The first is the more potent here.
